The assay has as its target human cannabinoid CB2 receptor (Homo sapiens, UniProt P34972). Nature of the assay: Cannabinoid CB2 receptor agonist activity (yeast reporter assay, FDGlu fluorescence). As to conditions: for Emax: read-out: efficacy value (Emax relative to HU210) at the cloned human cannabinoid CB2 receptor. Format: cell-based. Summed up: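 S. cerevisiae MMY23 expressing human CB2 with a Gpa1/Gαi3 chimeric G-protein, grown 24 h at 30 °C with agonist (1% DMSO) in selective media containing 10 mM 3-aminotriazole and FDGlu, pH 7.0. Fluorescein fluorescence (485/535 nm) fitted by four-parameter curve; Emax and EMR relative to HU210.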
On the technique in general: Reporter assays use an easily measured gene product as a stand-in for the process of interest.

Where [1] appears, read: EC50 value at the cloned human cannabinoid CB2 receptor.

Read-outs that look alike come from different tables or passages of the source. Where only a bound is given, the exact number is not on record here.

The source of these data is US20080132505A1 (Glaxo Group Limited, priority 2004, published 2008).

Sequence of human cannabinoid CB2 receptor (P34972 whole entry): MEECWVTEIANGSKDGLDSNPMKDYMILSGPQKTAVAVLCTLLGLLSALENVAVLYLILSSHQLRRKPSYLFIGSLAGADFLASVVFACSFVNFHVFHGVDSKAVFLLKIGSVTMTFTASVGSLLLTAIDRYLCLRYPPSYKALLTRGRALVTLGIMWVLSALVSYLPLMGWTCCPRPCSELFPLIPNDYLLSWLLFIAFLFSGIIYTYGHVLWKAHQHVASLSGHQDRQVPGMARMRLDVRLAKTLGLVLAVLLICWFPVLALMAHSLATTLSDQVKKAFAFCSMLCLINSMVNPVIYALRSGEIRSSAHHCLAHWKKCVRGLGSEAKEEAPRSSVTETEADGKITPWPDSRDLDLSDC

As a reminder, the EC50 is the concentration needed to bring the measured effect to its halfway point. Under setting [1], `O=C(NCc1ccc(F)cc1)c1cnc(Nc2ccc(Cl)cc2Cl)nc1C(F)(F)F` [Example 365, 2-(2,4-Dichloro-phenylamino)-4-trifluoromethyl-pyrimidine-5-carboxylic acid 4-fluoro-benzylamide] showed an EC50 of 20 to 300 nM.
The term Emax denotes the greatest response seen or fitted, relative to the assay's reference. For `N#Cc1ccc(Nc2ncc(C(=O)NCc3ccc(F)cc3)c(C(F)(F)F)n2)cc1Cl` [Example 351, 2-(3-Chloro-4-cyano-phenylamino)-4-trifluoromethyl-pyrimidine-5-carboxylic acid 4-fluoro-benzylamide], the Emax is more than 50%. The molecule further gave an EC50 under setting [1] of 20 to 300 nM.
`O=C(c1cnc(Nc2cccc(Br)c2)nc1C(F)(F)F)N1CCCCC1` [Example 12]: the Emax is more than 50%.
Turning to `O=C(NC1CCCC1)c1cnc(Nc2ccc(Cl)c(Cl)c2)nc1C(F)(F)F` [Example 74, 3,4-Dichlorophenylamino-4-trifluoromethyl-pyrimidine-5-carboxylic acid cyclopentylamide], the maximal effect (Emax) was more than 50%. The EC50 under setting [1] is 300 to 1000 nM.
Taken in the same sequence, the figures for `O=C(NC1CCC1)c1cnc(Nc2cccc(Cl)c2Cl)nc1C(F)(F)F` [Example 48, 2-(2,3-Dichlorophenylamino)-4-trifluoromethylpyrimidine-5-carboxylic acid cyclobutylamide] were more than 50% and 20 to 300 nM.
In the case of `O=C(NCc1ccccc1)c1cnc(Nc2ccc(Cl)cc2Cl)nc1C(F)(F)F` [Example 273, 2-(2,4-Dichlorophenylamino)-4-trifluoromethylpyrimidine-5-carboxylic acid benzyl-amide], under setting [1], the concentration for a half-maximal effect (EC50) lay within 20 to 300 nM.
`O=C(NCc1ccc(F)cc1)c1cnc(Nc2cc(F)cc(F)c2)nc1C(F)(F)F` [Example 350, 2-(3,5-Difluoro-phenylamino)-4-trifluoromethyl-pyrimidine-5-carboxylic acid 4-fluoro-benzylamide]: the EC50 under setting [1] lay within 20 to 300 nM.
On to `CN(Cc1ccccc1)C(=O)c1cnc(Nc2ccc(C(C)(C)C)cc2)nc1C(F)(F)F` [2-(4-tert-butyl-phenylamino)-4-trifluoromethyl-pyrimidine-5-carboxylic acid benzyl-methyl-amide], for which the “activity in the CB2 assay described herein” value is “inactive”.
For `O=C(NCC1CCOCC1)c1cnc(Nc2ccc(C(F)(F)F)cc2Cl)nc1C(F)(F)F` [Example 236, 2-(2-Chloro-4-trifluoromethyl-phenylamino)-4-trifluoromethyl-pyrimidine-5-carboxylic acid (tetrahydro-pyran-4-ylmethyl)-amide], the Emax was more than 50%. In addition, the EC50 under setting [1] is 20 to 300 nM.
Taken in the same sequence, the figures for `O=C(NCC1CC1)c1cnc(Nc2cccc(F)c2)nc1C(F)(F)F` [Example 83, 2-(3-Fluoro-phenylamino)-4-trifluoromethyl-pyrimidine-5-carboxylic acid cyclopropylmethyl-amide] were more than 50% and 300 to 1000 nM.
Taken in the same sequence, the figures for `O=C(c1cnc(Nc2cc(Cl)ccc2Cl)nc1C(F)(F)F)N1CCOCC1` [Example 9, 1-[2-(2,5-Dichlorophenylamino)-4-trifluoromethylpyrimidin-5-yl]-1-morpholin-4-yl-methanone] were more than 50% and 20 to 300 nM.
Taken in the same sequence, the figures for `O=C(NCC1CCOCC1)c1cnc(Nc2ccc(Cl)cc2Br)nc1C(F)(F)F` [Example 239, 2-(2-Bromo-4-chloro-phenylamino)-4-trifluoromethyl-pyrimidine-5-carboxylic acid (tetrahydro-pyran-4-ylmethyl)-amide] were more than 50% and 20 to 300 nM.
Take `CC(C)(C)CCNC(=O)c1cnc(Nc2cccc(Cl)c2)nc1C(F)(F)F` [Example 27, 2-(3-Chloro-phenylamino)-4-trifluoromethyl-pyrimidine-5-carboxylic acid (3,3-dimethyl-butyl)-amide]: the Emax is more than 50%. This molecule displayed an EC50 under setting [1] of 300 to 1000 nM.
As to `O=C(NCC1CCSCC1)c1cnc(Nc2ccc(Cl)cc2Cl)nc1C(F)(F)F` [Example 256, 2-(2,4-Dichlorophenylamino)-4-trifluoromethyl-pyrimidin-5-carboxylic acid (tetrahydrothiopyran-4-ylmethyl) amide], the maximum response (Emax) was more than 50%. Also, the EC50 under setting [1] lay within 20 to 300 nM.
Taken in the same sequence, the figures for `O=C(NCC1CCC1)c1cnc(Nc2ccc(F)cc2C(F)(F)F)nc1C(F)(F)F` [Example 101, 2-(2-Trifluoromethyl-4-fluorophenylamino)-4-trifluoromethyl-pyrimidine-5-carboxylic acid cyclobutylmethyl-amide] were more than 50% and 300 to 1000 nM.
In turn, `O=C(NCc1ccnc(F)c1)c1cnc(Nc2cccc(Cl)c2Cl)nc1C(F)(F)F` [Example 359, 2-(2,3-Dichloro-phenylamino)-4-trifluoromethyl-pyrimidine-5-carboxylic acid (2-fluoro-pyridin-4-ylmethyl)-amide] displayed an EC50 under setting [1] of 20 to 300 nM.
For the molecule `COc1cccc(Nc2ncc(C(=O)NCC3CCCC3)c(C(F)(F)F)n2)c1` [Example 46, 2-(3-Methoxyphenylamino)-4-trifluoromethylpyrimidine-5-carboxylic acid cyclopentylmethyl-amide], the Emax is more than 50%. Under setting [1], this molecule gave an EC50 of 20 to 300 nM.
With `O=C(NCc1ccnc(F)c1)c1cnc(Nc2cc(Cl)ccc2Cl)nc1C(F)(F)F` [Example 355, 2-(2,5-Dichloro-phenylamino)-4-trifluoromethyl-pyrimidine-5-carboxylic acid (2-fluoro-pyridin-4-ylmethyl)-amide], the EC50 under setting [1] lay within 20 to 300 nM.
For `O=C(NCC1CCCC1)c1cnc(Nc2c(Cl)cccc2Cl)nc1C(F)(F)F` [Example 43, 2-(2,6-Dichlorophenylamino)-4-trifluoromethylpyrimidine-5-carboxylic acid cyclopentylmethyl-amide], the maximal response (Emax) is more than 50%. The 50% effective concentration (EC50) under setting [1] lay within 20 to 300 nM.
Under setting [1], `O=C(NCc1ccc(F)cc1)c1cnc(Nc2cccc(Cl)c2F)nc1C(F)(F)F` [Example 348, 2-(3-Chloro-2-fluoro-phenylamino)-4-trifluoromethyl-pyrimidine-5-carboxylic acid 4-fluoro-benzylamide] registered an EC50 of 20 to 300 nM.
In the case of `O=C(c1cnc(Nc2cccc(Cl)c2)nc1C(F)(F)F)N1CCOCC1` [Example 3, 1-[2-(3-Chlorophenylamino)-4-trifluoromethylpyrimidin-5-yl]-1-morpholin-4-yl-methanone], the Emax is more than 50%. Moreover, the concentration for a half-maximal effect (EC50) under setting [1] was in the range of 20 to 300 nM.
Taken in the same sequence, the figures for `O=C(NCC1CCC1)c1cnc(Nc2ccccc2Cl)nc1C(F)(F)F` [Example 257, 2-(2-Chlorophenylamino)-4-trifluoromethyl-pyrimidine-5-carboxylic acid cyclobutylmethyl-amide] were more than 50% and 300 to 1000 nM.
Taken in the same sequence, the figures for `COc1cccc(Nc2ncc(C(=O)NC3CCC3)c(C(F)(F)F)n2)c1` [Example 53, 2-(3-Methoxyphenylamino)-4-trifluoromethylpyrimidine-5-carboxylic acid cyclobutylamide] were more than 50% and 20 to 300 nM.
Taken in the same sequence, the figures for `O=C(NC1CCCC1)c1cnc(Nc2cccc(Br)c2)nc1C(F)(F)F` [Example 207, 2-(3-Bromophenylamino)-4-trifluoromethyl-pyrimidine-5-carboxylic acid cyclopentylamide] were more than 50% and 20 to 300 nM.
As for `O=C(NCC1CCCCC1)c1cnc(Nc2ccc(F)cc2F)nc1C(F)(F)F` [Example 221, 2-(2,4-Difluoro-phenylamino)-4-trifluoromethyl-pyrimidine-5-carboxylic acid cyclohexylmethyl-amide], the Emax was more than 50%. In addition, the EC50 under setting [1] lay in the range of 20 to 300 nM.
Taken in the same sequence, the figures for `O=C(NCC1CCOCC1)c1cnc(Nc2cc(Cl)ccc2F)nc1C(F)(F)F` [Example 213, 2-(2-Fluoro-5-chloro-phenylamino)-4-trifluoromethyl-pyrimidine-5-carboxylic acid (tetrahydro-pyran-4-ylmethyl)-amide] were more than 50% and 20 to 300 nM.
Taken in the same sequence, the figures for `O=C(NC1CCCC1)c1cnc(Nc2cccc(Cl)c2Cl)nc1C(F)(F)F` [Example 77, 2,3-Dichlorophenylamino-4-trifluoromethyl-pyrimidine-5-carboxylic acid cyclopentylamide] were more than 50% and 300 to 1000 nM.
Turning to `O=C(c1cnc(Nc2ccc(Cl)cc2Cl)nc1C(F)(F)F)N1CCOCC1` [Example 7, 1-[2-(2,4-Dichlorophenylamino)-4-trifluoromethylpyrimidin-5-yl]-1-morpholin-4-yl-methanone], the Emax was more than 50%. Moreover, under setting [1], the EC50 lay in the range of 20 to 300 nM.
Taken in the same sequence, the figures for `O=C(c1cnc(Nc2cc(Cl)cc(Cl)c2)nc1C(F)(F)F)N1CCOCC1` [Example 13, 1-[2-(3,5-Dichlorophenylamino)-4-trifluoromethylpyrimidin-5-yl]-1-morpholin-4-yl-methanone] were more than 50% and 20 to 300 nM.
Take `O=C(NCc1ccc(F)cc1)c1cnc(Nc2cccc(Cl)c2)nc1C(F)(F)F` [Example 270, 2-(3-Chlorophenylamino)-4-trifluoromethylpyrimidine-5-carboxylic acid 4-fluorobenzyl-amide]: the EC50 (read-out: EC50 value at the cloned human cannabinoid CB2 receptor) was in the range of 20 to 300 nM.
`O=C(NCC1CCCCC1)c1cnc(Nc2ccc(Cl)cc2C(F)(F)F)nc1C(F)(F)F` [Example 170, 2-(4-Chloro-2-trifluoromethylphenylamino)-4-trifluoromethyl-pyrimidine-5-carboxylic acid cyclohexylmethyl-amide]: the Emax is more than 50%. Under setting [1], the EC50 lay within 20 to 300 nM.
Under setting [1], `O=C(NCc1ccncc1)c1cnc(Nc2cc(Cl)ccc2Cl)nc1C(F)(F)F` [Example 284, 2-(2,5-Dichlorophenylamino)-4-trifluoromethylpyrimidine-5-carboxylic acid (pyridin-4-ylmethyl)amide] showed an EC50 of 20 to 300 nM.
